Results: patent US20210395313A1, “PEPTIDE PAC1 ANTAGONISTS” (AMGEN INC., priority 2017, published 2021)
Where a SMILES comes first, the peptide text is derived from it. Bridges are numbered along the chain shown (N, C = ends). Where no end group is shown, it is not given here.

Legend:
rat PAC1 receptor = target: T1, rat PAC1 receptor (Rattus norvegicus, UniProt P32215); experiment: LANCE Ultra cAMP accumulation antagonist assay in RG-2 cells; format: cell-based;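 further: RG-2 rat glioma cells endogenously expressing PAC1, test peptide preincubated 30 min, then PAC1 agonist added at its EC80 for 15 min, cAMP accumulation read by LANCE Ultra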
T1 construct: SHSY-5Y (human neuroblastoma cell line) and RG-2 (rat glioma cell line) cells endogenously express human and rat PAC1 receptors, respectively; endogenous in cells; host or cells: RG-2 rat glioma cells
T1 sequence (P32215 20-523): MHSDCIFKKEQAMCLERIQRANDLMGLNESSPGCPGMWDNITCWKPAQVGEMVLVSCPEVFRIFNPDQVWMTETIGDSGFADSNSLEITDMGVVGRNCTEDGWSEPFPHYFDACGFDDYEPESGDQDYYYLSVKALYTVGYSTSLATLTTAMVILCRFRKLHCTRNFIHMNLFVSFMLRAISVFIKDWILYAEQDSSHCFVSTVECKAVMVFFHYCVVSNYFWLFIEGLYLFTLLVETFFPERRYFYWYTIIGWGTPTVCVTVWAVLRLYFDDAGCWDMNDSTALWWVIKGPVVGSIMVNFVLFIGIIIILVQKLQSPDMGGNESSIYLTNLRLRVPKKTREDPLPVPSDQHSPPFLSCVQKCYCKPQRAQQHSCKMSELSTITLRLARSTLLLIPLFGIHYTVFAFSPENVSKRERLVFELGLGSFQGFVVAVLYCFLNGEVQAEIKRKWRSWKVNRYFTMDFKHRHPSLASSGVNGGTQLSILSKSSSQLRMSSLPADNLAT

human PAC1 receptor = target: T2, human PAC1 receptor (Homo sapiens, UniProt P41586); experiment: LANCE Ultra cAMP accumulation antagonist assay in SHSY-5Y cells; format: cell-based;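 further: inhibition of cAMP accumulation evoked by PAC1 agonist at its EC80 in SHSY-5Y cells endogenously expressing receptor, 30 min preincubation then 15 min agonist, TR-FRET readout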
T2 construct: SHSY-5Y (human neuroblastoma cell line) and RG-2 (rat glioma cell line) cells endogenously express human and rat PAC1 receptors, respectively; endogenous in cells; host or cells: SHSY-5Y human neuroblastoma cells
T2 sequence (P41586 21-468): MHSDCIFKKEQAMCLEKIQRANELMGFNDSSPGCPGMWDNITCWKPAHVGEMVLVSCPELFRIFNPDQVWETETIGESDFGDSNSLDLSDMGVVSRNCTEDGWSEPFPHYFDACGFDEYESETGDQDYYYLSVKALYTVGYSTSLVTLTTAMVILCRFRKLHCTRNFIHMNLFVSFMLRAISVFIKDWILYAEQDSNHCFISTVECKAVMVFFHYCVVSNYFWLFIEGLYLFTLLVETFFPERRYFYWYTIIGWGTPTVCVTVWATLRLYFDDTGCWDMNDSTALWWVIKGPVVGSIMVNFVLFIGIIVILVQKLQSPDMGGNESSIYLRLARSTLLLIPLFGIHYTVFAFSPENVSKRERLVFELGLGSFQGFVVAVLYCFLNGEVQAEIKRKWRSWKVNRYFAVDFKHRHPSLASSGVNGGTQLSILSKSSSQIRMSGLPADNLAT

Row | Compound | IC50 (rat PAC1 receptor) | IC50 (human PAC1 receptor)
1 | CC[C@H](C)[C@H](NC(=O)[C@H](C)NC(=O)[C@H](CCCCN)NC(=O)[C@H](CCCNC(=N)N)NC(=O)[C@H](Cc1ccccc1)NC(=O)[C@H](CCC(N)=O)NC(=O)[C@@H]1CSSC[C@H](NC(C)=O)C(=O)N[C@@H](CC(=O)O)C(=O)N[C@@H](C)C(=O)N[C@@H]([C@@H](C)O)C(=O)N1)C(=O)N[C@@H](CC(=O)O)C(=O)N[C@@H](CC(=O)O)C(=O)N[C@H]1CSSC[C@@H](C(=O)N[C@@H](CCSC)C(=O)N[C@@H](CCCCN)C(=O)N[C@@H](CCC(N)=O)C(=O)N[C@@H](CCCCN)C(=O)N[C@@H](CCCCN)C(=O)N[C@@H](CCCCN)C(=O)N[C@@H](CCC(=O)O)C(=O)N[C@@H](Cc2ccccc2)C(=O)N[C@@H](CCCCN)C(=O)N[C@@H](C)C(N)=O)NC(=O)C(C)(C)NC(=O)[C@H](CCCCN)NC(=O)[C@H](Cc2ccccc2)NC(=O)[C@H](C(C)C)NC(=O)[C@H](CO)NC(=O)CNC(=O)[C@@H]2CCCN2C(=O)[C@H](C(C)C)NC(=O)[C@H](CC(N)=O)NC(=O)[C@H](CO)NC(=O)[C@H](Cc2c[nH]cn2)NC(=O)[C@H](Cc2c[nH]cn2)NC(=O)[C@H](C)NC(=O)[C@H](CCC(N)=O)NC(=O)[C@H](CCCCN)NC(=O)[C@H](CCC(N)=O)NC1=O [SEQ ID NO 249] | 0.01 to 1 nM | 1 to 100 nM
2 | CC[C@H](C)[C@H](NC(=O)[C@H](C)NC(=O)[C@H](CCCCN)NC(=O)[C@H](CCCNC(=N)N)NC(=O)[C@H](Cc1ccccc1)NC(=O)[C@H](CCC(N)=O)NC(=O)[C@@H]1CSSC[C@H](NC(C)=O)C(=O)N[C@@H](CC(=O)O)C(=O)N[C@@H](C)C(=O)N[C@@H]([C@@H](C)O)C(=O)N1)C(=O)N[C@@H](CC(=O)O)C(=O)N[C@@H](CC(=O)O)C(=O)N[C@H]1CSSC[C@@H](C(=O)N[C@@H](CCSC)C(=O)N[C@@H](CCCCN)C(=O)N[C@@H](CCC(N)=O)C(=O)N[C@@H](CCCCN)C(=O)N[C@@H](CCCCN)C(=O)N[C@@H](CCCCN)C(=O)N[C@@H](CCC(=O)O)C(=O)N[C@@H](Cc2ccccc2)C(=O)N[C@@H](CCCCN)C(=O)N[C@@H](C)C(=O)NCC(N)=O)NC(=O)C(C)(C)NC(=O)[C@H](CCCCN)NC(=O)[C@H](Cc2ccccc2)NC(=O)[C@H](C(C)C)NC(=O)[C@H](CO)NC(=O)CNC(=O)[C@@H]2CCCN2C(=O)[C@H](C(C)C)NC(=O)[C@H](CC(N)=O)NC(=O)[C@H](CO)NC(=O)[C@H](Cc2c[nH]cn2)NC(=O)[C@H](Cc2c[nH]cn2)NC(=O)[C@H](C)NC(=O)[C@H](CCC(N)=O)NC(=O)[C@H](CCCCN)NC(=O)[C@H](CCC(N)=O)NC1=O [SEQ ID NO 253] | 0.01 to 1 nM | 0.01 to 1 nM
3 | CC[C@H](C)[C@H](NC(=O)[C@H](C)NC(=O)[C@H](CCCCN)NC(=O)[C@H](CCCNC(=N)N)NC(=O)[C@H](Cc1ccccc1)NC(=O)[C@H](CCC(N)=O)NC(=O)[C@@H]1CSSC[C@H](N)C(=O)N[C@@H](CC(=O)O)C(=O)N[C@@H](C)C(=O)N[C@@H]([C@@H](C)O)C(=O)N1)C(=O)N[C@@H](CC(=O)O)C(=O)N[C@@H](CC(=O)O)C(=O)N[C@H]1CSSC[C@@H](C(=O)N[C@@H](CCSC)C(=O)N[C@@H](CCCCN)C(=O)N[C@@H](CCC(N)=O)C(=O)N[C@@H](CCCCN)C(=O)N[C@@H](CCCCN)C(=O)N[C@@H](CCCCN)C(=O)N[C@@H](CCC(=O)O)C(=O)N[C@@H](Cc2c[nH]c3ccccc23)C(=O)N[C@@H](CCCCN)C(=O)N[C@@H](C)C(=O)NCC(=O)N[C@@H](Cc2ccc(O)cc2)C(=O)O)NC(=O)[C@H](C)NC(=O)[C@H](CCCCN)NC(=O)[C@H](Cc2ccccc2)NC(=O)[C@H](C(C)C)NC(=O)[C@H](CO)NC(=O)[C@H](CO)NC(=O)[C@H](Cc2c[nH]cn2)NC(=O)[C@H](Cc2c[nH]cn2)NC(=O)[C@H](C)NC(=O)[C@H](CCC(N)=O)NC(=O)[C@H](CCCNC(=N)N)NC(=O)[C@H](C(C)C)NC1=O [compound 3] (H-CDATCQFRKAIDDCVRQAHHSSVFKACMKQKKKEWKAGY-OH; disulfide 1-5, 14-27) | 0.01 to 1 nM | 0.01 to 1 nM
4 | CSCC[C@H](NC(=O)[C@@H]1CSSC[C@H](NC(=O)[C@H](C)NC(=O)[C@@H](NC(=O)[C@H](CC(C)C)NC(=O)CNC(=O)[C@H](CCCCN)NC(=O)[C@H](CCCNC(=N)N)NC(=O)[C@H](Cc2ccc(O)cc2)NC(=O)[C@H](CCC(N)=O)NC(=O)[C@@H]2CSSC[C@H](N)C(=O)N[C@@H](CC(=O)O)C(=O)N[C@@H](C)C(=O)N[C@@H]([C@@H](C)O)C(=O)N2)C(C)C)C(=O)N[C@@H](C)C(=O)N[C@@H](CCCNC(=N)N)C(=O)N[C@@H](CCC(N)=O)C(=O)N[C@@H](C)C(=O)N[C@@H](Cc2ccc(O)cc2)C(=O)N[C@@H](Cc2c[nH]cn2)C(=O)N[C@@H](CO)C(=O)N[C@@H](CO)C(=O)N[C@@H](C(C)C)C(=O)N[C@@H](Cc2ccccc2)C(=O)N[C@@H](CCCCN)C(=O)N[C@@H](C)C(=O)N1)C(=O)N[C@@H](CCCCN)C(=O)N[C@@H](CCC(N)=O)C(=O)N[C@@H](CCCCN)C(=O)N[C@@H](CCCCN)C(=O)N[C@@H](CCCCN)C(=O)N[C@@H](CCC(=O)O)C(=O)N[C@@H](Cc1c[nH]c2ccccc12)C(N)=O [compound 5] (H-CDATCQYRKGLVACARQAYHSSVFKACMKQKKKEW-NH2; disulfide 1-5, 14-27) | 1 to 100 nM | 1 to 100 nM
5 | CC[C@H](C)[C@H](NC(=O)[C@H](C)NC(=O)[C@H](CCCCN)NC(=O)[C@H](CCCNC(=N)N)NC(=O)[C@H](Cc1ccccc1)NC(=O)[C@H](CCC(N)=O)NC(=O)[C@@H]1CSSC[C@H](N)C(=O)N[C@@H](CC(=O)O)C(=O)N[C@@H](C)C(=O)N[C@@H]([C@@H](C)O)C(=O)N1)C(=O)N[C@@H](CC(=O)O)C(=O)N[C@@H](CC(=O)O)C(=O)N[C@H]1CSSC[C@@H](C(=O)N[C@@H](CCSC)C(=O)N[C@@H](CCCCN)C(=O)N[C@@H](CCC(N)=O)C(=O)N[C@@H](CCCCN)C(=O)N[C@@H](CCCCN)C(=O)N[C@@H](CCCCN)C(=O)N[C@@H](CCC(=O)O)C(=O)N[C@@H](Cc2ccccc2)C(=O)N[C@@H](CCCCN)C(=O)N[C@@H](C)C(=O)NCC(=O)N[C@@H](CCCCN)C(=O)O)NC(=O)[C@H](CCC(=O)O)NC(=O)[C@H](CCCCN)NC(=O)[C@H](Cc2ccccc2)NC(=O)[C@H](C(C)C)NC(=O)[C@H](CO)NC(=O)[C@H](CC(N)=O)NC(=O)[C@H](CO)NC(=O)[C@H](Cc2c[nH]cn2)NC(=O)[C@H](Cc2c[nH]cn2)NC(=O)[C@H](C)NC(=O)[C@H](CCC(N)=O)NC(=O)[C@H](CCCCN)NC(=O)[C@H](CCC(N)=O)NC1=O [compound 396] (H-CDATCQFRKAIDDCQKQAHHSNSVFKECMKQKKKEFKAGK-OH; disulfide 1-5, 14-28) |  | 1 to 100 nM
6 | CC[C@H](C)[C@H](NC(=O)[C@H](C)NC(=O)[C@H](CCCCN)NC(=O)[C@H](CCCNC(=N)N)NC(=O)[C@H](Cc1ccccc1)NC(=O)[C@H](CCC(N)=O)NC(=O)[C@@H]1CSSC[C@H](N)C(=O)N[C@@H](CC(=O)O)C(=O)N[C@@H](C)C(=O)N[C@@H]([C@@H](C)O)C(=O)N1)C(=O)N[C@@H](CC(=O)O)C(=O)N[C@@H](CC(=O)O)C(=O)N[C@H]1CSSC[C@@H](C(=O)N[C@@H](CCSC)C(=O)N[C@@H](CCCCN)C(=O)N[C@@H](CCC(N)=O)C(=O)N[C@@H](CCCCN)C(N)=O)NC(=O)[C@H](CCC(=O)O)NC(=O)[C@H](CCCCN)NC(=O)[C@H](Cc2ccccc2)NC(=O)[C@H](C(C)C)NC(=O)[C@H](CO)NC(=O)[C@H](CC(N)=O)NC(=O)CNC(=O)[C@@H]2CCCN2C(=O)[C@H](C(C)C)NC(=O)[C@H](CC(N)=O)NC(=O)[C@H](CO)NC(=O)[C@H](Cc2c[nH]cn2)NC(=O)[C@H](Cc2c[nH]cn2)NC(=O)[C@H](C)NC(=O)[C@H](CCC(N)=O)NC(=O)[C@H](CCCCN)NC(=O)[C@H](CCC(N)=O)NC1=O [compound 413] |  | 1 to 100 nM
7 | CDATCQFRKAIDDCKQQAHHSNVPGNSVFEKCMKQKKKEFKAGK (disulfide 1-5, 14-32) [compound 346] |  | > 100 nM
8 | CDATCQFRKAIDDCQKQAHHSNVGNSVFKECMKQKKKEFKAGK (disulfide 1-5, 14-31) [compound 398] |  | 1 to 100 nM
9 | CDATCQFRKAIDDCQKQAHHSNVPGNSFKECMKQKKKEFKAGK (disulfide 1-5, 14-31) [compound 363] |  | 1 to 100 nM
10 | CDATCQFRKAIDDCQKQAHHSNVPGNSVKECMKQKKKEFKAGK (disulfide 1-5, 14-31) [compound 362] |  | > 100 nM
11 | CDATCQFRKAIDDCQKQAHHSNVPGSVFKECMKQKKKEFKAGK (disulfide 1-5, 14-31) [compound 364] |  | 1 to 100 nM
12 | CDATCQFRKAIDDCQKQAHHSNVPNSVFKECMKQKKKEFKAGK (disulfide 1-5, 14-31) [compound 365] |  | 1 to 100 nM
13 | CDATCQFRKAIDDCQKQAHHSNVSVFKECMKQKKKEFKAGK (disulfide 1-5, 14-29) [compound 397] |  | 1 to 100 nM
